Results from article PMC10722499, “Consumption of Roasted Coffee Leads to Conjugated Metabolites of Atractyligenin in Human Plasma” (Journal of Agricultural and Food Chemistry, 2023).
Like-named read-outs stand apart in the source and are kept apart here.

Test: Human coffee intervention study: plasma concentrations after roasted coffee brew by UPLC-MS/MS
Format: in vivo
Conditions: for samples above the LLOQ: n = 10; for concentration at 1 h / concentration at 4 h / concentration at 10 h: human, plasma
Method: The study included ten volunteers (5 females, 5 males) (age: 28.3 ± 2.3 years; BMI: 21.89 ± 2.22 kg/m^2). The intervention study took place from November 5, 2021, to February 17, 2022, in the core facility human studies of the ZIEL Institute for Food and Health of the Technical University of Munich. The study was performed in agreement with the Declaration of Helsinki, and all participants gave written informed consent. The study was approved by the Ethics Committee of the Technical University of Munich (5798/13 S-SR) and registered in the German Register of Clinical Studies (DRKS00005083).
The study participants underwent a dietary protocol that excluded all forms of coffee consumption. Additionally, chocolate, black/green/white, mate tea, cola, energy drinks, and beauty products containing caffeine (e.g., shampoos, creams) were prohibited 1 week before the test day. Furthermore, the study participants received a standardized meal the evening before the test day. The meal was composed of pasta, margarine, and salt, and the amount of energy was calculated based on the participant’s basal energy demand. On the morning of the test day, the participants were in a fastened state and received water (control samples) or coffee brew (coffee intervention) as breakfast. Blood was sampled before coffee intake (0 h) and at defined time points (1, 4, and 10 h) after coffee intake. 6 h after the coffee intake, the participants received lunch, the same standardized meal as the previous dinner. The administered coffee was prepared from a coffee capsule (Nespresso, ROMA) with 100 mL water. The administered volume of the coffee brew was 200 mL. Based on the coffee powder per capsule ([…]), the concentrations of 2 (2.8 μmol/g) and 3 (1.1 μmol/g), respectively,[10] and an estimated extraction rate of 100%, the total ingested amounts were 33.6 μmol (2) and 13.2 μmol (3).
In an Eppendorf tube (1.5 mL), aliquots (50 μL each) of the calibration standard, sample, or QC, respectively, were mixed with the IS solution (1000 nM in ethanol, 50 μL) and acetonitrile/ethanol (9 + 1, v + v, 50 μL) was added. After vortexing, suspensions were cleared by centrifugation (12,000 rpm, 4 °C, 10 min), and the supernatant (∼100 μL) was transferred to an HPLC vial with 200 μL insert for analysis (5 μL injection).
The UPLC–MS/MS system consisted of a Shimadzu Nexera X2 UPLC system (Shimadzu, Duisburg, Germany) hyphenated to a QTrap 5500 MS/MS system (Sciex, Darmstadt, Germany) operating in negative electrospray (ESI^–) mode with the following ion source parameters: ion spray voltage: −4500 V; source temperature: 500 °C; nebulizer gas: 55 psi; heater gas: 65 psi; and curtain gas: 35 psi. The MS/MS parameters, including the collision cell entrance potential (CEP), declustering potential (DP), collision energy (CE), and cell exit potential (CXP), were tuned for each compound and mass transition and are summarized in Supporting Table S3. The dwell time for each compound was 30 ms, and the total cycle time was 0.75 s. Chromatographic separation was achieved on a C18 column (Kinetex C18, 100 mm × 2.1 mm, 1.7 μm, Phenomenex, Aschaffenburg, Germany) at a flow rate of 500 μL/min flow rate. Eluent A was 0.1% formic acid in water, and eluent B was 0.1% formic acid in acetonitrile. B was kept at 3% (1 min), increased to 25% (in 3 min), 90% (in 2 min, 1 min isocratic), and 3% (0.5 min, 2.5 min isocratic). The total time of the analysis was 10 min. The column effluent was introduced from the waste to the MS/MS system between 3 and 7 min.
We applied this method to human plasma samples from a coffee intervention study to investigate the appearance of coffee compounds 1–3 and metabolites M1–M3. Ten participants underwent a washout period (7 days) and then consumed one dose of […]. Blood samples were taken at baseline (0 h) and 1, 4, and 10 h after the intervention. […]

## C=C1C2CCC3C4(C)CC(O)CC(C(=O)OC5OC(C(=O)O)C(O)C(O)C5O)C4CCC3(C2)C1O [M1, atractyligenin-19-O-β-D-glucuronide]
0 h, before coffee intake, human plasma
  plasma level at baseline: no peaks were detected
4 h after coffee brew (200 mL), human plasma, values above LLOQ
  plasma concentration, mean ± SD: 11.7 ± 10.7 nM
4 h after coffee
  samples above the LLOQ: 80%
10 h after coffee brew (200 mL), human plasma, values above LLOQ
  plasma concentration, mean ± SD: 13.1 ± 5.8 nM
10 h after coffee
  samples above the LLOQ: 90%
Both sexes, oral, 200 mL, 1 h after coffee brew (200 mL), human plasma, values above LLOQ, read-out: plasma concentration, mean ± SD
  concentration at 1 h: 25.1 ± 4.9 nM
Both sexes, oral, 200 mL, 4 h after coffee brew (200 mL), human plasma, values above LLOQ, read-out: plasma concentration, mean ± SD
  concentration at 4 h: 14.2 ± 10.5 nM
Both sexes, oral, 200 mL, 10 h after coffee brew (200 mL), human plasma, values above LLOQ, read-out: plasma concentration, mean ± SD
  concentration at 10 h: 14.4 ± 4.4 nM
Both sexes, oral, human plasma after coffee brew (200 mL), n = 10, mean ± SD, read-out: estimated cmax in plasma
  Cmax: 25.1 ± 4.9 nM
Human plasma after coffee brew (200 mL), sampling only at 0, 1, 4, 10 h
  time of estimated cmax: 1 h
oral, 200 mL coffee brew, participant xrwz, 4 h after coffee, b = below LLOQ, read-out: plasma concentration, individual
  concentration at 4 h: 1.7 nM
oral, 200 mL, participant ayia, 1 h after coffee, read-out: plasma concentration, individual
  concentration at 1 h: 16.4 nM
oral, 200 mL, participant ayia, 4 h after coffee, b = below LLOQ, read-out: plasma concentration, individual
  concentration at 4 h: 1.7 nM
oral, 200 mL, participant ayia, 10 h after coffee, read-out: plasma concentration, individual
  concentration at 10 h: 17.2 nM
oral, 200 mL, participant cbdu, 1 h after coffee, b = below LLOQ, read-out: plasma concentration, individual
  concentration at 1 h: 24.6 nM
oral, 200 mL, participant cbdu, 4 h after coffee, read-out: plasma concentration, individual
  concentration at 4 h: 2.9 nM
oral, 200 mL, participant cbdu, 10 h after coffee, read-out: plasma concentration, individual
  concentration at 10 h: 17.8 nM
oral, 200 mL, participant eogo, 1 h after coffee, b = below LLOQ, read-out: plasma concentration, individual
  concentration at 1 h: 30 nM
oral, 200 mL, participant eogo, 4 h after coffee, b = below LLOQ, read-out: plasma concentration, individual
  concentration at 4 h: 4.6 nM
oral, 200 mL, participant eogo, 10 h after coffee, b = below LLOQ, read-out: plasma concentration, individual
  concentration at 10 h: 12.3 nM
oral, 200 mL, participant ggot, 1 h after coffee, read-out: plasma concentration, individual
  concentration at 1 h: 32.2 nM
oral, 200 mL, participant ggot, 4 h after coffee, b = below LLOQ, read-out: plasma concentration, individual
  concentration at 4 h: 9.7 nM
oral, 200 mL, participant ggot, 10 h after coffee, b = below LLOQ, read-out: plasma concentration, individual
  concentration at 10 h: 1.7 nM
oral, 200 mL, participant imhz, 1 h after coffee, read-out: plasma concentration, individual
  concentration at 1 h: 30.6 nM
oral, 200 mL, participant imhz, 4 h after coffee, read-out: plasma concentration, individual
  concentration at 4 h: 10.5 nM
oral, 200 mL, participant imhz, 10 h after coffee, read-out: plasma concentration, individual
  concentration at 10 h: 21.5 nM
oral, 200 mL, participant mgjj, 1 h after coffee, read-out: plasma concentration, individual
  concentration at 1 h: 23.6 nM
oral, 200 mL, participant mgjj, 4 h after coffee, read-out: plasma concentration, individual
  concentration at 4 h: 12.4 nM
oral, 200 mL, participant mgjj, 10 h after coffee, read-out: plasma concentration, individual
  concentration at 10 h: 17.5 nM
oral, 200 mL, participant rrmk, 1 h after coffee, read-out: plasma concentration, individual
  concentration at 1 h: 22 nM
oral, 200 mL, participant rrmk, 4 h after coffee, b = below LLOQ, read-out: plasma concentration, individual
  concentration at 4 h: 19.7 nM
oral, 200 mL, participant rrmk, 10 h after coffee, read-out: plasma concentration, individual
  concentration at 10 h: 14.4 nM
oral, 200 mL, participant wbqj, 1 h after coffee, b = below LLOQ, read-out: plasma concentration, individual
  concentration at 1 h: 27.5 nM
oral, 200 mL, participant wbqj, 4 h after coffee, b = below LLOQ, read-out: plasma concentration, individual
  concentration at 4 h: 36 nM
oral, 200 mL, participant wbqj, 10 h after coffee, b = below LLOQ, read-out: plasma concentration, individual
  concentration at 10 h: 8.5 nM
oral, 200 mL, participant wbvs, 1 h after coffee, read-out: plasma concentration, individual
  concentration at 1 h: 23.8 nM
oral, 200 mL, participant wbvs, 4 h after coffee, read-out: plasma concentration, individual
  concentration at 4 h: 17.8 nM
oral, 200 mL, participant wbvs, 10 h after coffee, read-out: plasma concentration, individual
  concentration at 10 h: 9.7 nM
oral, 200 mL, participant xrwz, 1 h after coffee, read-out: plasma concentration, individual
  concentration at 1 h: 20.2 nM
oral, 200 mL, participant xrwz, 10 h after coffee, b = below LLOQ, read-out: plasma concentration, individual
  concentration at 10 h: 10.5 nM
Individual plots, after first maximum at 1 h
  participants in whom plasma concentration increased between 4 and 10 h: 60%
